# Laboratory results reported in PubChem BioAssay (NCI).
#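 A five-concentration, 48-hour dose response in 96-well plates underlies each endpoint, interpolated linearly between surrounding concentrations. TGI: concentration producing complete growth inhibition.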
# Assays:
# Assay in all cases: growth of human tumour cells (NCI), 48 h
# CAKI-1 renal = tested on: CAKI-1 renal
# CCRF-CEM leukemia = tested on: CCRF-CEM leukemia
# COLO 205 colon = tested on: COLO 205 colon
# HCT-15 colon = tested on: HCT-15 colon
# HL-60(TB) leukemia = tested on: HL-60(TB) leukemia
# HOP-62 NSCLC = tested on: HOP-62 NSCLC
# KM12 colon = tested on: KM12 colon
# LOX IMVI melanoma = tested on: LOX IMVI melanoma
# MALME-3M melanoma = tested on: MALME-3M melanoma
# NCI-H23 lung = tested on: NCI-H23 lung
# RPMI-8226 leukemia = tested on: RPMI-8226 leukemia
# RXF 393 renal = tested on: RXF 393 renal
# SF-295 CNS = tested on: SF-295 CNS
# SF-539 CNS = tested on: SF-539 CNS
# U251 CNS = tested on: U251 CNS
# UACC-257 melanoma = tested on: UACC-257 melanoma
# A549 NSCLC = tested on: A549 NSCLC
# HT29 colon = tested on: HT29 colon
# SN12C renal = tested on: SN12C renal
# UO-31 renal = tested on: UO-31 renal
Structure (SMILES),TGI (CAKI-1 renal) [µM],TGI (CCRF-CEM leukemia) [µM],TGI (COLO 205 colon) [µM],TGI (HCT-15 colon) [µM],TGI (HL-60(TB) leukemia) [µM],TGI (HOP-62 NSCLC) [µM],TGI (KM12 colon) [µM],TGI (LOX IMVI melanoma) [µM],TGI (MALME-3M melanoma) [µM],TGI (NCI-H23 lung) [µM],TGI (RPMI-8226 leukemia) [µM],TGI (RXF 393 renal) [µM],TGI (SF-295 CNS) [µM],TGI (SF-539 CNS) [µM],TGI (U251 CNS) [µM],TGI (UACC-257 melanoma) [µM],TGI (A549 NSCLC) [µM],TGI (HT29 colon) [µM],TGI (SN12C renal) [µM],TGI (UO-31 renal) [µM]
C=CCN1C(=O)/C(=C/c2ccccc2)N=C1SC1OC(COC(=O)c2ccccc2)C(OC(=O)c2ccccc2)C1OC(=O)c1ccccc1 (configuration not stated),> 100,70.4,> 100,> 100,> 100,> 100,> 100,> 100,> 100,> 100,87.9,> 100,> 100,> 100,> 100,> 100,–,–,–,–
CCN1c2ccccc2-n2c(C)nnc2-c2c1n[nH]c2-c1ccccc1,–,55.4,> 100,> 100,28.5,–,> 100,89.2,–,> 100,82.3,> 100,> 100,> 100,46.8,> 100,> 100,> 100,81.6,> 100
CC(C)OP(=O)(OC(C)C)c1c(Nc2ccccc2)n[nH]c1N,> 100,> 100,> 100,> 100,–,> 100,> 100,> 100,> 100,> 100,> 100,> 100,> 100,> 100,> 100,> 100,> 100,> 100,–,> 100
C[C@]12CC[C@@H]3c4ccc(O)cc4CC[C@H]3[C@@H]1C/C(=C\c1ccncc1)C2=O,> 100,> 100,> 100,> 100,68,> 100,37.6,58.9,54.8,> 100,> 100,> 100,> 100,28.9,> 100,> 100,> 100,72.2,–,> 100
C=C(C(=O)C(=O)Oc1ccc(Cl)cc1)C(=O)c1ccc(C)cc1,> 100,> 100,> 100,> 100,> 100,> 100,42.5,16.5,> 100,> 100,> 100,79.3,> 100,34.7,46.2,> 100,> 100,> 100,> 100,> 100
C#CCCCCC#Cc1ccccc1C(=O)OC,–,32.4,> 100,> 100,29.4,> 100,> 100,33.1,> 100,> 100,41.5,95.1,> 100,> 100,> 100,> 100,> 100,> 100,> 100,> 100
COCCOCOc1ccc(OCc2ccccc2)cc1,> 100,> 100,> 100,> 100,> 100,> 100,> 100,> 100,> 100,> 100,> 100,> 100,> 100,> 100,> 100,> 100,> 100,> 100,> 100,> 100
Oc1ccc(/C=C/c2cc(O)cc(O)c2)cc1,> 100,–,–,> 100,> 100,> 100,> 100,–,–,> 100,> 100,> 100,> 100,> 100,> 100,> 100,> 100,> 100,> 100,> 100
C/C(CCOC1CCCCO1)=C(\C)[Si](C)(C)C (configuration not stated),–,> 100,> 100,> 100,> 100,–,> 100,> 100,> 100,> 100,> 100,–,> 100,> 100,> 100,> 100,> 100,> 100,> 100,> 100
